Reference: patent US11286256B2, “Bicyclic inhibitors of histone deacetylase” (Alkermes, Inc., priority 2017, dated 2022)
≈ marks a conversion by molar mass, not a printed value.

Legend:
HDAC2 [1] = biological target: T1, HDAC2 (Homo sapiens, UniProt Q92769); assay: HDAC2 enzymatic inhibition assay in SY5Y cell lysate with HDAC-Glo2 substrate; type: cell-based; set-up: host or cells: SH-SY5Y; settings: SH-SY5Y cells, 5 h compound incubation, HDAC-Glo 2 reagent
Protocol: HDAC2 Enzymatic Inhibition Assay in SY5Y Cell Lysate with HDAC-Glo2 Substrate
SH-SY5Y cells (Sigma) were cultured in Eagle's Modified Essential Medium supplemented with 10% fetal bovine serum and pen/strep. Twenty-four hours prior to compound dosing 20 uL of cells were plated in white 384 well plates at a density of 1,500 cells/well. Compounds were serially diluted in neat DMSO and then diluted 1:100 v/v into media without FBS and mixed. Media was removed from the plated cells and the diluted compounds in serum free media (1% v/v final DMSO) were added and incubated at 37.0 for five hours. Ten uL of HDAC-Glo 2 reagent with 0.1% Triton X-100 was then added, the plate was mixed and allowed to develop at room temperature for 100 minutes. Plates were then read with a Spectramax LMax luminometer employing a 0.4 s integration time. Dose response curves were constructed with normalized data where CI-994 at 100 uM was defined as 100% inhibition and DMSO alone as 0% inhibition.

HDAC2 [2] = biological target: T1, HDAC2; assay: HDAC2 recombinant enzymatic assay; type: biochemical; set-up: purchased BPS Bioscience; settings: 5 h pre-incubation, 5 nM enzyme; read-out: HDAC recombinant enzymatic IC50 HDAC2
Protocol: (§1) The following describes an assay protocol for measuring the deacetylation of a peptide substrate by the enzymes HDAC2 or HDAC1.
(§2) All recombinant human HDACs were purchased from BPS Bioscience. The substrate, FAM-TSRHK(AC)KL-CONH, was synthesized at NanoSyn. Final assay reactions contained 100 mM HEPES (pH 7.5), 50 mM KCl, 0.1% BSA, 0.01% Triton X-100, 1% DMSO, 1 uM substrate and 5 nM HDAC enzyme. Enzyme and compounds were pre-incubated at 25° C. for 5 hours and reactions were initiated by addition of substrate. 10 uL reactions were incubated for 17 hours at 25° C. and terminated by the addition of 40 uL of buffer containing 100 mM HEPES (pH 7.5), 0.1% BSA, 0.01% Triton X-100 and 0.05% SDS. Substrate and product peptides present in each sample were separated electrophoretically using the LabChip 3000 capillary electrophoresis instrument. Change in the relative fluorescence intensity of the substrate and product peaks reflects enzyme activity. Reaction progress was determined as the product to sum ratio (PSR):P/(S+P), where P is the peak height of the product peptide and S is the peak height of the substrate peptide. Reactions were performed in duplicate at 12 concentrations, (3× serial dilutions starting at 30 uM). IC50 values were calculated using a 4 Parameter Logistic Model.

CYP3A4 = biological target: T2, CYP3A4 (Homo sapiens, UniProt P08684); assay: CYP inhibition assay in human liver microsomes (3A4, midazolam); type: in vitro ADME; settings: for inhibition at 5 min, 10 µM: probe midazolam, human liver microsomes, midazolam
T2 construct: Human liver microsomes were obtained from BD Gentest; tissue BD Gentest; host or cells: human liver microsomes
Protocol: (§3) Compounds were tested to evaluate their inhibitory potential on CYP2D6 and CYP3A4 (midazolam) using human liver microsomes. Human liver microsomes were obtained from BD Gentest, and each compound was run in duplicate.
(§4) The test compounds and reference inhibitors (quinidine for 2D6, ketoconazole for 3A4) were plated in a 96-well plate by transferring 8 μL of 10 mM stock solutions of compound in DMSO to 12 μL of acetonitrile. Individual inhibitor spiking solutions were prepared for CYP2D6 and CYP3A4 (8 μL of DMSO stock added to 12 μL of acetonitrile). Next added 400 μL of 0.2 mg/mL HLM to the assay wells and then added 2 μL of 400× test compound into the designated wells on ice. Next, added 200 μL of 0.2 mg/mL HLM to the assay wells and then added 1 μL of reference inhibitor solutions into the designated wells. The following solutions were added (in duplicate) to a 96-well assay plate on ice: The test compounds and reference inhibitors (quinidine for 2D6, ketoconazole for 3A4) were tested using the following experimental procedure:
(§5) 10. Incubate the assay plate at 37° C. 5 min for 3A4, 10 min for 2D6.
(§6) 11. Stop the reaction by adding 120 μL of ACN containing Internal Standard. For CYP3A4, the internal standard is 1′OH-midazolam-D4 (10 μM solution diluted to a final concentration of 0.1 μM by adding 100 μL internal standard stock to 10 mL ACN). For CYP2D6, the internal standard is 1-OH-Bufuralol-maleate-[D9] (49 μM solution diluted to a final concentration of 0.1 μM by adding 20 μL internal standard stock to 10 mL ACN).
(§7) The assessment on CYP isoform inhibition is as follows based on the assay results: if percentage of CYP inhibition is higher than 50%, indicates potent inhibition; if percentage of CYP inhibition is between 30-50%, indicates […]; if percentage of CYP inhibition is less than 30%, indicates slight or no inhibition. If the percentage of CYP inhibition is less than −30%, this indicates the compound may have some kind of activation of this isoform.

CYP2D6 = biological target: T3, CYP2D6 (Homo sapiens, UniProt P10635); assay: CYP inhibition assay in human liver microsomes (2D6); type: in vitro ADME; settings: for inhibition of CYP2D6 (in words): 10 μM; for inhibition at 10 min, 10 µM: human liver microsomes
T3 construct: Human liver microsomes were obtained from BD Gentest; tissue BD Gentest; host or cells: human liver microsomes
Protocol: as §3, §4, §5, §6, §7

[3] = Aqueous kinetic solubility measurement; type: physicochemical; settings: for solubility at 1 h: aqueous buffer, kinetic from dmso stock, kinetic, 100 mM phosphate buffer pH 7.4, 1% DMSO
Protocol: Compounds were evaluated for their kinetic solubility in buffer or water. Aliquots of 8 μL of reference and test compound stock solutions (10 mM in DMSO) were added into 792 μL of 100 mM phosphate buffer (0.1 M NaPO4, pH 7.4). Final DMSO concentration is 1%. The sample tubes were shaken for 1 hour (1000 rpm) at room temperature. A calibration curve was prepared using 300 μM spiking solution (SS) in MeOH/ACN(4:1) (SS=add 6 μL 10 mM compound in 194 μL MeOH/ACN(4:1)). Samples were centrifuged for 10 min (12000 rpm) to precipitate undissolved particles, and the supernatants were transferred to a new tube or plate. Supernatants were diluted 10 times and 100 times with 100 mM buffer. Samples were then prepared for analysis by LC-MS/MS (Add 5 μL of compound samples (not diluted, 10 times diluted and 100 times diluted) and standard curve samples to 95 μL of ACN containing internal standard. Internal standards used are Propranolol, Ketoconazole, and Tamoxifen.

HDAC1 = biological target: T4, HDAC1 (Homo sapiens, UniProt Q13547); assay: HDAC1 recombinant enzymatic assay; type: biochemical; settings: 5 h pre-incubation, 5 nM enzyme; read-out: HDAC recombinant enzymatic IC50 HDAC1
T4 construct: purchased BPS Bioscience
Protocol: as §1, §2

[4] = system: human myeloid progenitors (CFU-GM); assay: Myeloid CFU assay in human bone marrow cells; type: cell-based
Protocol: (§8) Compounds were tested to evaluate the potential effects on human erythroid and myeloid progenitors using colony forming cell assays. Clonogenic progenitors of human erythroid (CFU-E, BFU-E), granulocyte-monocyte (CFU-GM) and multipotential (CFU-GEMM) lineages were assessed in a semi-solid methylcellulose-based media formulation containing rhlL-3 (10 ng/mL), rhGM-SCF (10 ng/mL), rhSCF (50 ng/mL) and Epo (3 U/mL).
(§9) Normal human bone marrow light density cells derived from normal bone marrow (NorCal Biologics, California) and qualified at ReachBio, were stored in the gaseous phase of liquid nitrogen (−152° C.) until required for the assay. On the day of the experiment, the cells were thawed rapidly, the contents of each vial was diluted in 10 mL of Iscove's modified Dulbecco's medium containing 10% fetal bovine serum (IMDM+10% FBS) and washed by centrifugation (approximately 1200 r.p.m. for 10 minutes, room temperature). The supernatant was discarded and the cell pellets resuspended in a known volume of IMDM+10% FBS. A cell count (3% glacial acetic acid) and viability assessment (trypan blue exclusion test) was performed for the bone marrow sample.
(§10) On the day of the experiment, the compounds were dissolved in DMSO to a stock concentration of 10 mM. Serial dilutions were prepared from the stock concentration to achieve concentrations of 2 and 0.4 mM. When added to the methylcellulose-based media at 1:1000 (v/v), the final test concentrations of 10, 2 and 0.4 μM were achieved. Additionally, 5-FU was evaluated at 1.0, 0.1 and 0.01 μg/mL.
(§11) Clonogenic progenitors of the human erythroid (CFU-E and BFU-E) and myeloid (CFU-GM) lineages were set up in the methylcellulose-based media formulations described above. All compounds were added to the medium to give the final desired concentrations (10, 2 and 0.4 μM). 5-Fluorouracil (Sigma Aldrich) was used as a positive control for progenitor proliferation (inhibition of colony growth) and was introduced to the human bone marrow cultures at 1.0, 0.1, and 0.01 μg/mL. Solvent control cultures (containing no compound but 0.1% DMSO) as well as standard controls (containing no compound and no DMSO) were also initiated.
(§12) Human myeloid and erythroid progenitor assays were initiated at 2.0×10^4 cells per culture. Following 14 days in culture, myeloid and erythroid colonies were assessed microscopically and scored by trained personnel. The colonies were divided into the following categories based on size and morphology: CFU-E, BFU-E, CFU-GM and CFU-GEMM.
(§13) The mean±one standard deviation of three replicate cultures was calculated for progenitors of each category (CFU-E, BFU-E, etc.). Two-tailed t-tests were performed to assess if there was a difference in the number of colonies generated between solvent control and treated cultures. Due to the potential subjectivity of colony enumeration, a p value of less than 0.01 is deemed significant. To calculate the concentration of 50% inhibition of colony growth (IC50) for each compound, a dose response curve was generated plotting the log of the compound concentration versus the percentage of control colony growth using XLfit software (IDBS). The concentration of 50% inhibition of colony growth (IC50) was calculated based on the sigmoid curve fit using Dose-Response, One-Site Model formula: y=A+[(B−A)/(1+((C/x)^D))], where A=the initial value (baseline response), B=maximum response, C=center (drug concentration that provokes a response halfway between A and B) and D=slope of the curve at midpoint. Further, plots and additional dose response curves were generated using GraphPad Prism 7.0.
(§14) Erythroid (CFU-E and BFU-E), myeloid (CFU-GM) and multi-potential (CFU-GEMM) colony enumeration was performed by trained personnel. The distribution of colony types as well as general colony and cellular morphology was analyzed. For statistical analysis colony numbers in compound treated cultures were compared to the solvent control cultures. […]

[5] = system: human erythroid progenitors (CFU-E, BFU-E); assay: Erythroid CFU assay in human bone marrow cells; type: cell-based
Protocol: as §8, §9, §10, §11, §12, §13, §14

[6] = 10 μM, 14 days culture, human bone marrow cells

T4 sequence (Q13547 whole entry): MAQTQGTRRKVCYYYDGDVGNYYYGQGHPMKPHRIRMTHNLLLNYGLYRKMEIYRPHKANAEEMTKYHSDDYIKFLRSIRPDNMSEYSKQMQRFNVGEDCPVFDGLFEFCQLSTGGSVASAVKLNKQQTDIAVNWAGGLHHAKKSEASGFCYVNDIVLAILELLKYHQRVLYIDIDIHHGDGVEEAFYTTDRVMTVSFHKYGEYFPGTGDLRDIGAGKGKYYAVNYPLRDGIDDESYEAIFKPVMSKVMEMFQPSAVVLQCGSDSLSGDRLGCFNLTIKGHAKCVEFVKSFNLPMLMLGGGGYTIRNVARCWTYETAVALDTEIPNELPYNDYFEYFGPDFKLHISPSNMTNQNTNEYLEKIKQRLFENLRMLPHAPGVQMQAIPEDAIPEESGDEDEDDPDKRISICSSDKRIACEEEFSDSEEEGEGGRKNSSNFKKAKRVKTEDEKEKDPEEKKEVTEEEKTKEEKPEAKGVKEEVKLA
T1 sequence (Q92769 whole entry): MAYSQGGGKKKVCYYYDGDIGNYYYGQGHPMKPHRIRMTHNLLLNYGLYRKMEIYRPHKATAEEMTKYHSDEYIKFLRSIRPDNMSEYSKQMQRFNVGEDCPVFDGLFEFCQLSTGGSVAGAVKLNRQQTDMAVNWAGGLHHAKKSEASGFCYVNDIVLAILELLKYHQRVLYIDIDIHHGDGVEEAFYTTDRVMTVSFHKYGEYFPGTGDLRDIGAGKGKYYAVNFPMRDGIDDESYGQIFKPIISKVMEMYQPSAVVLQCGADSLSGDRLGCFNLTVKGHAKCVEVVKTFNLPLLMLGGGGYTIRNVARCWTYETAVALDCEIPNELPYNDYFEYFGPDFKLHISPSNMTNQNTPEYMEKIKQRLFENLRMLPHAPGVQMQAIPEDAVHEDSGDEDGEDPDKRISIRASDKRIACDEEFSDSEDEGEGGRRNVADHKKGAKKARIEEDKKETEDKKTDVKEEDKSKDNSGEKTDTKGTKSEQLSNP
T3 sequence (P10635 whole entry): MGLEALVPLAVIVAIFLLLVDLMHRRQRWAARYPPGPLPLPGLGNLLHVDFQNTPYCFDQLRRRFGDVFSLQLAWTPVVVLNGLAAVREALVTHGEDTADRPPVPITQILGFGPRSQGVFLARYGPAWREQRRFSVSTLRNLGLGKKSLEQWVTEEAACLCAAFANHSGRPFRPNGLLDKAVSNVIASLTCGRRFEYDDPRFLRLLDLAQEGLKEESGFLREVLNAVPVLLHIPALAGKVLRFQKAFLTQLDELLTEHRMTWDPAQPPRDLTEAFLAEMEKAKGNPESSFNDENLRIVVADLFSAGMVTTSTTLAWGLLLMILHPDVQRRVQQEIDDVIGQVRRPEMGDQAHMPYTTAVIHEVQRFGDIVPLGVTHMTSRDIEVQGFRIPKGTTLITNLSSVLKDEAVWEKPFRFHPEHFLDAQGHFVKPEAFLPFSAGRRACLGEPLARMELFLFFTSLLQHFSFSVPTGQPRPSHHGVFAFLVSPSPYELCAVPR
T2 sequence (P08684 whole entry): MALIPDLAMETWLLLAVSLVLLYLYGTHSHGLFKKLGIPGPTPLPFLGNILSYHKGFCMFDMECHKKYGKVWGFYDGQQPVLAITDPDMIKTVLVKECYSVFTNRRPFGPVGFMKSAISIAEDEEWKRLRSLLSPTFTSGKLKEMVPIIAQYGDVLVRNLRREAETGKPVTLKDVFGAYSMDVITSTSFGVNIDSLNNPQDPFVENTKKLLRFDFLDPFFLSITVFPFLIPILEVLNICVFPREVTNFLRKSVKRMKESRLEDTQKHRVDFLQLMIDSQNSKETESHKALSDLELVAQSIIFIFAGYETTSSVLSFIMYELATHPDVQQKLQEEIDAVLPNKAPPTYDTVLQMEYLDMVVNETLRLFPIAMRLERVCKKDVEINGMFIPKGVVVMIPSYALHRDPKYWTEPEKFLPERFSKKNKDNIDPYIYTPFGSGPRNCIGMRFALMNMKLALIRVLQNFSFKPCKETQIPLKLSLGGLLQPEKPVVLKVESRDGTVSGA

Row | IC50 (HDAC2 [1]) [nM] | IC50 (HDAC2 [2]) [nM] | inhibition at 5 min, 10 µM (CYP3A4) [%] | inhibition of CYP2D6 (in words) (CYP2D6) | inhibition at 10 min, 10 µM (CYP2D6) [%] | solubility (in words) [3] | solubility at 1 h [3] [µM] | IC50 (HDAC1) [nM] | inhibition of CYP3A4 (in words) (CYP3A4; 10 μM) | CFU % Control remaining @ 10 μM Myeloid [4, 6] [%] | CFU % Control remaining @ 10 μM Erythroid [5, 6] [%] | inhibitory effects on myeloid colony growth (positive control, in words) ([4]; 1.0, 0.1 and 0.01 μg/mL) | inhibitory effects on erythroid colony growth (positive control, in words) ([5]; 1.0, 0.1 and 0.01 μg/mL) | Compound
1 | 394 | 304 | -4 | high levels | 62 | extremely low | 1 (≈ 0.349 µg/mL) | 79 | – | – | – | – | – | Nc1ccc(-c2ccc(F)cc2)nc1NC(=O)N1Cc2cccnc2C1 [Comparator F]
2 | 639 | 335 | 65 | inhibited at high levels | 94 | – | 55 (≈ 19.2 µg/mL) | 143 | inhibited at high levels | – | – | – | – | Nc1ccc(-c2ccc(F)cc2)nc1NC(=O)N1Cc2ccncc2C1 [Comparator G]
3 | 621 | 214 | 28 | – | 57 | – | 78 (≈ 28.3 µg/mL) | 90 | – | – | – | – | – | Cc1cc2c(cn1)CN(C(=O)Nc1nc(-c3ccc(F)cc3)ccc1N)C2 [Comparator H]
4 | 666 | – | 33 | – | 2 | – | 121 (≈ 47.6 µg/mL) | – | – | 59 | 23 | – | – | COCc1cc2c(cn1)CN(C(=O)Nc1nc(-c3ccc(F)cc3)ccc1N)C2 [Comparator I]
5 | – | – | – | – | – | – | – | – | – | – | – | exactly as expected | exactly as expected | O=c1[nH]cc(F)c(=O)[nH]1 [Compound 5-FU, 5-Fluorouracil]
